The Km is the substrate concentration at which the rate is half of its maximum. For orientation: Ki means the dissociation constant of the complex between target and ligand, obtained from inhibition or displacement.

Where two headings read alike, the source gives them in different places. Where only a bound is given, the exact number is not on record here.

In series [1] the target is T1, human NAMPT (Homo sapiens, UniProt P43490). Put plainly: ADP/ATP isotope exchange catalyzed by NAMPT. The format is biochemical. Conditions: for concentration required for half-maximal exchange activity: ADP/ATP exchange, 0.6 µM enzyme.
T1 sequence (P43490 whole entry): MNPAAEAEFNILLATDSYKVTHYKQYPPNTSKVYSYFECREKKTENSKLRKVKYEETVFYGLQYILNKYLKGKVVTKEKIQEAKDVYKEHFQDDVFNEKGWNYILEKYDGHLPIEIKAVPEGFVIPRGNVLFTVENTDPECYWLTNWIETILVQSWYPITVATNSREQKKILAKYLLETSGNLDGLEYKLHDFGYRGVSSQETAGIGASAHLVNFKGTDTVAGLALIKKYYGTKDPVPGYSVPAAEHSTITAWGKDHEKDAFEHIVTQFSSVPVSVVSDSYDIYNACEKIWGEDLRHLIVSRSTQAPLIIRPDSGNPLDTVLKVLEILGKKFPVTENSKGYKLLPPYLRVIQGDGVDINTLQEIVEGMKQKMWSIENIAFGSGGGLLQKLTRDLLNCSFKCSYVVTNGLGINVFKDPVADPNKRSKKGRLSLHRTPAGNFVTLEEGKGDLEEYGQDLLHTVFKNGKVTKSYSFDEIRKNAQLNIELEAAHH
The target of series [2] is T1, human NAMPT. Put plainly: NAMPT kinetic parameters with ATP. The series is classed as biochemical.
The conditions of series [3]: cited from earlier work.
The subject of series [4] is human vascular smooth muscular cells. Conditions: cited from earlier work.
Series [5] deals with T1, human NAMPT. In words: Inhibition of ATP-coupled NMN synthesis. The format is biochemical.
The target in series [6] is T1, human NAMPT. In words: Inhibition of non ATP-coupled NMN synthesis. The series is classed as biochemical.
For series [7], the target named is T1, human NAMPT. In words: NAMPT kinetic parameters without ATP. Conditions: non ATP-coupled NMN synthesis. The format is biochemical.
Series [8] deals with T1, human NAMPT. The following applies: continuous fluorometric coupled assay, with ATP (2.5 mM).
Series [9] deals with T1, human NAMPT. Put plainly: Stimulated ATPase activity of NAMPT. The series is classed as biochemical. The following applies: 1 mM compound, 2 mM ATP; for ATP hydrolysis rate (ATPase activity): […] enzyme.
For series [10], the system named is Salmonella typhimurium NAPT. The following applies: cited from earlier work.

For `Nc1ncnc2c1ncn2[C@@H]1O[C@H](COP(=O)(O)OP(=O)(O)O)[C@@H](O)[C@H]1O` [ADP], the “concentration required for half-maximal exchange activity” value at human NAMPT [1] is on record as 0.44 ± 0.05 mM.
With `Nc1ncnc2c1ncn2[C@@H]1O[C@H](COP(=O)(O)OP(=O)(O)OP(=O)(O)O)[C@@H](O)[C@H]1O` [ATP], on human NAMPT [2] (ATP-coupled NMN synthesis), the Km was 7400 ± 1500 µM and the “concentration above which NMN synthesis is inhibited” value is given as “above 4 mM”. The “concentration required for half-maximal exchange activity” value at human NAMPT [1] came to 2.2 ± 0.2 mM.
Regarding `Nc1ncnc2c1ncn2[C@@H]1O[C@H](COP(=O)(O)OP(=O)(O)OP(=O)(O)OP(=O)(O)OP(=O)(O)OC[C@H]2O[C@@H](n3cnc4c(N)ncnc43)[C@H](O)[C@@H]2O)[C@@H](O)[C@H]1O` [Ap5A, P^1,P^5-di(adenosine-5’-) pentaphosphate, reference compound], the “effect on ADP/ATP exchange” value at human NAMPT [1] (10 µM) is “retained the same exchange rate”.
`O=C(/C=C/c1cccnc1)NCCCCC1CCN(C(=O)c2ccccc2)CC1` [FK866, (E)-N-[4-(1-benzoylpiperidin-4-yl)butyl]-3-(pyridin-3-yl) acrylamide]: in [3] (clinical trials), the “binding to plasma proteins” value is reported as “substantial drug binding to plasma proteins”, the bioavailability entry is listed as “low bioavailability” and the intravenous clearance result is “rapid intravenous clearance”. Also, the objective responses result in series [3] (continuous intravenous infusions over 96 h for a period of 4 weeks) is “no objective responses”. Further, in series [4], the “NAD+ levels” value is recorded as “low levels of NAD^+” and the SIRT1 activity result is recorded as “decrease of SIRT1 activity”.
As to `NC(=O)C1=CN([C@@H]2O[C@H](COP(=O)(O)OP(=O)(O)OC[C@H]3O[C@@H](n4cnc5c(N)ncnc54)[C@H](O)[C@@H]3O)[C@@H](O)[C@H]2O)C=CC1` [NADH], the “Ratio Km/Ki (NAM)” value on human NAMPT [5] (2.5 mM ATP) is less than 1. At human NAMPT [5] (2.5 mM ATP), the “Ratio Km/Ki (PRPP)” value is given as 3. Besides, the Ki at human NAMPT [5] (read-out: Ki versus NAM, 2.5 mM ATP) is 3200 ± 200 nM; at human NAMPT [5] (read-out: Ki versus PRPP, 2.5 mM ATP), 220 ± 20 nM; at human NAMPT [6] (read-out: Ki versus NAM, non ATP-coupled NMN synthesis, competitive vs NAM), greater than 100000 nM.
In the case of `NC(=O)c1ccc[n+]([C@@H]2O[C@H](COP(=O)([O-])OP(=O)(O)OC[C@H]3O[C@@H](n4cnc5c(N)ncnc54)[C@H](O)[C@@H]3O)[C@@H](O)[C@H]2O)c1` [NAD^+, nicotinamide adenine dinucleotide], on human NAMPT [5] (2.5 mM ATP), the “Ratio Km/Ki (NAM)” value is less than 1. In addition, the “Ratio Km/Ki (PRPP)” value on human NAMPT [5] (2.5 mM ATP) was found to be 5. Further, the Ki at human NAMPT [5] (Ki versus NAM, 2.5 mM ATP) was 2100 ± 200 nM; at human NAMPT [5] (Ki versus PRPP, 2.5 mM ATP) it was 140 ± 14 nM; at human NAMPT [6], greater than 100000 nM.
In the case of `NC(=O)c1cccnc1` [NAM, nicotinamide], the Michaelis constant (Km) came to 0.855 ± 0.022 µM at human NAMPT [7] (no Pi); 0.235 ± 0.017 µM on human NAMPT [7] (with Pi (2 mM phosphate)); 0.017 ± 0.002 µM on human NAMPT [2] (read-out: apparent Km (affinity), direct [14C]NAM assay with ATP, NAD+ present); 0.057 ± 0.006 µM at human NAMPT [8].
With `O=P(O)(O)NP(=O)(O)O` [PNP, imidodiphosphate, reference compound], on human NAMPT [9], the “ATP hydrolysis rate (ATPase activity)” value amounted to 2.6 min⁻¹.
In the case of `O=P(O)(O)OC[C@H]1O[C@H](OP(=O)(O)OP(=O)(O)O)[C@H](O)[C@@H]1O` [PRPP, α-D-5-phosphoribosyl-1-pyrophosphate], the Km is 7.2 ± 0.6 µM at human NAMPT [7] (no Pi); 11.7 ± 0.8 µM on human NAMPT [7] (with Pi (2 mM phosphate)); 0.63 ± 0.03 µM at human NAMPT [2] (ATP-coupled NMN synthesis); 22 ± 3.3 µM in series [10] (ATP-coupled NAMN synthesis); 4500 ± 2200 µM in [10] (non ATP-coupled NAMN synthesis). For the same compound, on human NAMPT [2] (ATP-coupled vs non ATP-coupled), the “fold lowering of Km by ATP” value turned out to be 10 fold. Moreover, on human NAMPT [9], the “effect on ATP hydrolysis” value is “inhibited ATP hydrolysis”. Moreover, the “effect on ADP/ATP exchange” value at human NAMPT [1] (100 µM) is reported as “near-complete inhibition”.
Consider `O=P(O)(O)O` [Pi], for which the Michaelis-Menten constant (Km) on human NAMPT [7] (read-out: Km of Pi) came to 180 ± 20 µM.
Turning to `O=P(O)(O)OP(=O)(O)O` [pyrophosphate], the “ATP hydrolysis rate (ATPase activity)” value on human NAMPT [9] turned out to be 1.1 min⁻¹.

Values taken from article PMC2657875 (Biochemistry, 2008).
